Assay: Solubilization in anhydrous polar solvents
Type: physicochemical
Conditions: 25° C.
Method: It was unexpectedly discovered that both hydroxy acids and urea can be fully solubilized in anhydrous solvent at concentrations suitable for use as a chemical peel. Illustratively, for a peeling activity in the provided compositions and systems the hydroxy acid and urea must be present at a concentration of 8-10% or greater, with much greater efficacy at 10% or greater. It was discovered that anhydrous polar solvents can fully solubilize (i.e. no observable haze at 25° C.) both hydroxy acids and urea up to concentrations of 25%, thereby allowing significant efficacy when applied to the skin. The use of anhydrous glycerin (as one example) alone or optionally with or substituted by other anhydrous polar solvents (e.g. anhydrous polar solvents such as propylene glycol, butylene glycol, dimethylisosorbide, etc.) allows for the elimination of water and the prevention of the “burn” experienced in prior systems.

concentration fully solubilized (no observable haze): ≤ 25%
SMILES: NC(N)=O [urea]

From patent US10092491B2, “Skin renewal enhancer” (priority 2015, dated 2018)
